According to ChEMBL document CHEMBL1155699, “Steroidal alkaloids from the leaves of Sarcococca coriacea of Nepalese origin” (J Nat Prod, 2001):

Key:
[1] = target: Acetylcholinesterase (Electrophorus electricus, UniProt O42275); assay: Inhibition of electric eel AChE by Ellman's method
[2] = target: Cholinesterase (Equus caballus, UniProt P81908); assay: Inhibition of horse BChE
Cholinesterase, sequence (P81908 whole entry): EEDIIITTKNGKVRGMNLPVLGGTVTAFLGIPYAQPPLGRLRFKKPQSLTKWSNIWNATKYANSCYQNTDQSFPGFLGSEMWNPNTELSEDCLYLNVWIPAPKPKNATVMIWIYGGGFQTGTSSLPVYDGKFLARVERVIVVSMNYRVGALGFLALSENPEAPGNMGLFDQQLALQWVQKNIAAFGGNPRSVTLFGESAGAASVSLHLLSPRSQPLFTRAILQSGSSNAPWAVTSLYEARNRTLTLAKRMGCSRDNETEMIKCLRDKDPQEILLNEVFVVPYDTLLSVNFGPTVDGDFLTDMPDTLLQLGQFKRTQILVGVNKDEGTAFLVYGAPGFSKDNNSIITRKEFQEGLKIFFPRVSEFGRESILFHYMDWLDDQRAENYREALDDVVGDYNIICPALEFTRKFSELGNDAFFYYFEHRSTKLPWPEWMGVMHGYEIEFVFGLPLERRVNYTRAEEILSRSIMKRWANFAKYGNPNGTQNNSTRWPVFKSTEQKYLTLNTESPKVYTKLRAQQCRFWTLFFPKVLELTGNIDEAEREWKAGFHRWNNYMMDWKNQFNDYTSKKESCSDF

Acetylcholinesterase, sequence (O42275 whole entry): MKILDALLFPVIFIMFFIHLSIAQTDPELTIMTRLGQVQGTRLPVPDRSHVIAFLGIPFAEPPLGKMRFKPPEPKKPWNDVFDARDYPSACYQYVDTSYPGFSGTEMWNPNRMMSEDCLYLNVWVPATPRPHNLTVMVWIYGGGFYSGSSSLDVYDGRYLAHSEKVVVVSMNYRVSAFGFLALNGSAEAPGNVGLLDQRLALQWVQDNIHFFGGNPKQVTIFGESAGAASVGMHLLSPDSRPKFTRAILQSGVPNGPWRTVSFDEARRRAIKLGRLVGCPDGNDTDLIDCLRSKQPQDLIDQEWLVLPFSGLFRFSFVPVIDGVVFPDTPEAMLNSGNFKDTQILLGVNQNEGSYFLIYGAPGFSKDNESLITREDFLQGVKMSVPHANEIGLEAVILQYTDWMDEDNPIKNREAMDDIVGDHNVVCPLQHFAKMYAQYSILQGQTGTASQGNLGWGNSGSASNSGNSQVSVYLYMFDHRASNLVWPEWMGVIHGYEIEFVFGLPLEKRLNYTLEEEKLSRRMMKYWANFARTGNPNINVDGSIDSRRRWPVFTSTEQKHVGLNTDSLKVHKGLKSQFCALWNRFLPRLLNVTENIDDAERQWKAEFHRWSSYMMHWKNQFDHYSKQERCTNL

Structure (SMILES) | IC50 [1] [µM] | IC50 [2] [µM]
C/C=C(\C)C(=O)N[C@@H]1[C@H](OC(C)=O)[C@@H]2CC[C@@H]3[C@H](CC[C@]4(C)C([C@H](C)NC)=CC[C@@H]34)[C@@]2(C)C[C@@H]1OC(C)=O [NEPAPAKISTAMINE] | 50.1 | 25
CC(=O)O[C@H]1[C@@H](NC(=O)C=C(C)C)CC[C@]2(C)[C@H]3CC[C@]4(C)C([C@H](C)N(C)C)=CC[C@H]4[C@@H]3CC[C@@H]12 [VAGANINE D] | 46.9 | 10
